In patent publication US7067666B2, “7-substituted camptothecin and camptothecin analogs and methods for producing the same” (priority 2003, dated 2006):
In brackets after ≈: the same amount, converted by molar mass.

assay: Solubility in methylene chloride (standard method for ascertaining lipophilicity); format: physicochemical; conditions: not given
Text: Throughout the present application many CPT compounds have been defined with a substituent X as shown in structure I or II where X is defined and many substituents are shown. With the exception of the simple substituents where R is C1-5 alkyl (which can be prepared by the method of Sawada et al. (Chem. Pharm. Bull. 39, 2574-2580 ([…]))), the other compounds recited herein can not be made by conventional methods, but require, to the best of the inventors' knowledge, the use of the method of the present invention. Using the method of Sawada et al, the yield of alkyl became progressively lower essentially terminating where R is C5 alkyl. All other R substituents shown herein can be made only by the present method involving Grignard reactions, especially analogs like 7-t-butyl-10,11-methylenedioxy-CPT, 7-trimethylsilylmethyl-10,11-methylenedioxy-CPT, 7-naphthylmethyl-10,11-methylenedioxy-CPT, 7-p-fluorophenyl-10,11-methylenedioxy-CPT, 7-p-trifluoromethyl-10,11-methylenedioxy-CPT, and 7-p-tolyl-10,11-methylenedioxy-CPT. A number of compounds made by this method have shown unusual properties. For example, Table 1 gives the methylene chloride solubility of a number of compounds which are made by the methods described by this patent. For example, 7-butyl-10-aminocamptothecin made by this procedure is remarkably lipophilic. 10-Aminocamptothecin has a solubility of —0.2 mg/ml. […] It has been found by several groups that lipophilic substituents at the 7 position have excellent activity in the inhibition of topoisomerase I and in in vitro and in vivo cancer therapy.
We have utilized a standard method for ascertaining the lipophilicity of a number of camptothecin analogs. This involves the solubility in methylene chloride. This solvent is an excellent solvent for fat-soluble compounds. As can be noted with only one exception, compounds with the 7-butyl substituent are considerably more soluble than those without this constituent. Thus camptothecin is soluble only to the extent of 0.6 mg/ml whereas 7-butyl-camptothecin has a solubility of 20 mg/ml. 10-Amino-camptothecin is soluble only to the extent of 0.2 mg/ml. Very unexpectedly, 7-butyl-10-amino-camptothecin is very soluble at 145 mg/ml. It is also conceivable that camptothecin analogs with 7-pentyl or 7-hexyl substituents or 7-cyclopentyl or 7-cyclohexyl substituents will have increased solubility.

Row | Compound | Solubility | solubility in methylene chloride
1 | CCC1(O)C(=O)OCc2c1cc1n(c2=O)Cc2cc3c(N)c4c(cc3nc2-1)OCO4 (centres unmarked) [9-Amino-10,11-MD-CPT, reference compound] | <20 µg/mL | –
2 | CCC1(O)C(=O)OCc2c1cc1n(c2=O)Cc2cc3c([N+](=O)[O-])c4c(cc3nc2-1)OCO4 (centres unmarked) [9-Nitro-10,11-MD-CPT, reference compound] | 250 µg/mL (≈ 572 µM) | –
3 | CCCCc1c2c(nc3ccc(O)cc13)-c1cc3c(c(=O)n1C2)COC(=O)[C@]3(O)CC [7-Butyl-10-OH-CPT] | <50 µg/mL | –
4 | CC[C@@]1(O)C(=O)OCc2c1cc1n(c2=O)Cc2cc3cc(OC)ccc3nc2-1 [10-Methoxy-CPT, reference compound] | 3000 µg/mL (≈ 7930 µM) | –
5 | CC[C@@]1(O)C(=O)OCc2c1cc1n(c2=O)Cc2c-1nc1cc3c(cc1c2-c1ccc(C)cc1)OCO3 [7-p-Tolyl-10,11-MD-CPT, 7-p-Tolyl-10,11-MD-20(S)-Camptothecin] | 4600 µg/mL (≈ 9530 µM) | –
6 | CCC1(O)C(=O)OCc2c1cc1n(c2=O)Cc2cc3c(C)cccc3nc2-1 (centres unmarked) [Example 9-Methyl-CPT, 9-Methyl-CPT, reference compound] | 100 µg/mL (≈ 276 µM) | –
7 | CCCCc1c2c(nc3ccccc13)-c1cc3c(c(=O)n1C2)COC(=O)C3(O)CC (centres unmarked) [Example 7-Butyl-CPT, 7-butyl-camptothecin] | 20000 µg/mL (≈ 49400 µM) | 20000 µg/mL (≈ 49400 µM)
8 | CCCCc1c2c(nc3ccc(N)cc13)-c1cc3c(c(=O)n1C2)COC(=O)[C@]3(O)CC [7-Butyl-10-Amino-CPT, 7-n-Butyl-10-Amino-20(S)-Camptothecin] | 145000 µg/mL (≈ 346000 µM) | –
9 | CC[C@@]1(O)C(=O)OCc2c1cc1n(c2=O)Cc2c-1nc1cc3c(cc1c2-c1ccc(F)cc1)OCO3 [7-p-Fluorophenyl-10,11-MD-CPT, 7-p-Fluorophenyl-10,11-MD-20(S)-Camptothecin] | 2550 µg/mL (≈ 5240 µM) | –
10 | CC[C@@]1(O)C(=O)OCc2c1cc1n(c2=O)Cc2c-1nc1cc3c(cc1c2Cc1ccccc1)OCO3 [7-Benzyl-10,11-MD-CPT, 7-Benzyl-10,11-MD-20(S)-Camptothecin] | 1800 µg/mL (≈ 3730 µM) | –
11 | CCCCc1c2c(nc3cc4c(cc13)OCCO4)-c1cc3c(c(=O)n1C2)COC(=O)C3(O)CC (centres unmarked) [7-Butyl-10,11-ED-CPT] | 7000 µg/mL (≈ 15100 µM) | –
12 | CC[C@@]1(O)C(=O)OCc2c1cc1n(c2=O)Cc2cc3c(N)cccc3nc2-1 [Example 9-Amino-CPT, 9-Amino-CPT, reference compound] | <30 µg/mL | –
13 | CCC1(O)C(=O)OCc2c1cc1n(c2=O)Cc2cc3cc4c(cc3nc2-1)OCCO4 (centres unmarked) [10,11-ED-CPT, reference compound] | 200 µg/mL (≈ 492 µM) | –
14 | 7-Benzyl-10,11-CPT | 1800 µg/mL | –
15 | 7-Butyl-9-methyl-CPT | 180 µg/mL | –
16 | CCCCc1c2c(nc3cc4c(cc13)OCO4)-c1cc3c(c(=O)n1C2)COC(=O)[C@]3(O)CC [7-Butyl-10,11-MD-CPT] | 8500 µg/mL (≈ 19000 µM) | –
17 | CC[C@@]1(O)C(=O)OCc2c1cc1n(c2=O)Cc2cc3cc(N)ccc3nc2-1 [Example 10-Amino-CPT, 10-Aminocamptothecin, reference compound] | 200 µg/mL (≈ 550 µM) | 200 µg/mL (≈ 550 µM)
18 | CC[C@@]1(O)C(=O)OCc2c1cc1n(c2=O)Cc2c-1nc1cc3c(cc1c2-c1ccc(Cl)cc1)OCO3 [7-p-Chlorophenyl-10,11-MD-CPT, 7-p-Chlorophenyl-10,11-MD-20(S)-Camptothecin] | 6300 µg/mL (≈ 12500 µM) | –
19 | CCCCc1c2c(nc3ccc(OC)cc13)-c1cc3c(c(=O)n1C2)COC(=O)C3(O)CC (centres unmarked) [7-Butyl-10-methoxy-CPT] | 2000 µg/mL (≈ 4600 µM) | –
20 | CCC(C)c1c2c(nc3ccccc13)-c1cc3c(c(=O)n1C2)COC(=O)C3(O)CC (centres unmarked) [7-(sec)Butyl-CPT] | 33000 µg/mL (≈ 81600 µM) | –

same assay, conditions: Solubility in CH2Cl2

Row | Compound | Solubility
21 | CC[C@@]1(O)C(=O)OCc2c1cc1n(c2=O)Cc2cc3cc(O)ccc3nc2-1 [Example 10-OH-CPT, 10-OH-CPT, reference compound] | <40 µg/mL
22 | CC[C@@]1(O)C(=O)OCc2c1cc1n(c2=O)Cc2cc3ccccc3nc2-1 [Camptothecin] | 600 µg/mL (≈ 1720 µM)
23 | CC[C@@]1(O)C(=O)OCc2c1cc1n(c2=O)Cc2cc3cc4c(cc3nc2-1)OCO4 [10,11-MD-CPT, 10,11-methylenedioxy-CPT, reference compound] | <8 µg/mL

same assay, conditions: organic solvent or mixture; methylene chloride; read-out: solubility in methylene chloride

Row | Compound | Solubility
24 | CC[C@@]1(O)C(=O)OCc2c1cc1n(c2=O)Cc2cc3ccccc3nc2-1 [Camptothecin] | 600 µg/mL (≈ 1720 µM)
